Source: US20250176602A1, “Composition for Proliferation of Bacteroides uniformis in the Intestinal Tract” (Asahi Group Holdings, Ltd., priority 2019, published 2025)

Experiment: Fatigue feeling mitigation test, VAS questionnaire after Aerobike exercise loading (Example 2)
Format: in vivo, human
Experimental: As test subjects, 21 healthy males at the ages of 20 to 49 who have exercise habits of conducting exercise with an intensity of 5 METs or more for 30 minutes or more once or twice a week and who can continue the exercise habits during the test period as well were selected.
Among the 21 test subjects, 10 test subjects were selected as an α-cyclodextrin (αCD) intake group, and the remaining 11 test subjects were selected as a placebo group. The test subjects themselves were not informed who belonged to which group.
Test Supplements (tablets) having compositions described in Table 1 below were used. One tablet of the test supplements was of about 250 mg.
Each test subject of the αCD intake group and the placebo group was asked to take in 3 tablets of the above test supplements once a day at any timing. That is, each test subject of the α-cyclodextrin intake group was asked to take in about 200 mg of α-cyclodextrin per day.
The intake period for the test supplements was set to 9 weeks, and change in gut flora was evaluated, a questionnaire on fatigue feeling was conducted, and change in travel time was evaluated, before the start of the intake, after 4-week intake, and after 8-week intake. Note that foods and beverages that are said to support sports and training, pharmaceutical products and quasi-pharmaceutical products that have recovery, prevention or amelioration of “fatigue”, “tiredness”, “physical strength” and/or “lassitude” as the indication and effects, as well as supplements in general (also including foods with functional claims and foods for specified health use) were prohibited to take in for 1 week counted from the date when the test subjects agreed to participate in the test and during the test period.
The test subjects were subjected to exercise loading (load intensity: at an intensity of 45% of the maximum exercise loading intensity of each test subject for 50 minutes) using Aerobike (trade mark) (manufactured by KONAMI Sports & Life Col., Ltd., model number AEROBIKE-75XLIII), before intake of the test supplements, after 4-week intake, and after 8-week intake. […] Regarding fatigue, a VAS (Visual Analogue Scale) questionnaire was conducted based on the VAS testing method for fatigue feeling established by Japanese Society of Fatigue Science, immediately after loading, 30 minutes after loading, and 60 minutes after loading, to investigate change in fatigue feeling with time. The items of the questionnaire were “general fatigue feeling”, “fatigue feeling of the legs”, “tension of the legs”, “general lassitude”, and “difficulty in breathing”, and the “best state (0 mm)” and the “worst state (100 mm)” in each item were based on criteria shown in Table 2. In each intake group, the amounts of change in measured value were evaluated after 4-week intake and after 8-week intake based on the measured value before intake. […] The significant test between the placebo group and the α-cyclodextrin (αCD) intake group for the general fatigue feeling was conducted by Student's t-test, and the result of the test was summarized as a graph in FIG. 2 (*: p<0.05). In addition, the results for the items “fatigue feeling of the legs”, “tension of the legs”, “general lassitude”, and “difficulty in breathing” were summarized in Table 3. In Table 3, the significant difference was studied by paired t-test for a comparison with before intake of αCD, and the significant test between the placebo group and the α-cyclodextrin (αCD) intake group was conducted by Student's t-test.

[1] = 30 minutes after exercise, after 4-week intake, about 200 mg/day
[2] = 30 minutes after exercise, after 8-week intake, about 200 mg/day
[3] = 30 minutes after exercise, before intake
[4] = 60 minutes after exercise, after 4-week intake, about 200 mg/day
[5] = 60 minutes after exercise, after 8-week intake, about 200 mg/day
[6] = 60 minutes after exercise, before intake
[7] = immediately after exercise, after 4-week intake, about 200 mg/day
[8] = immediately after exercise, after 8-week intake, about 200 mg/day
[9] = immediately after exercise, before intake

OC[C@H]1O[C@@H]2O[C@H]3[C@H](O)[C@@H](O)[C@@H](O[C@H]4[C@H](O)[C@@H](O)[C@@H](O[C@H]5[C@H](O)[C@@H](O)[C@@H](O[C@H]6[C@H](O)[C@@H](O)[C@@H](O[C@H]7[C@H](O)[C@@H](O)[C@@H](O[C@H]1[C@H](O)[C@H]2O)O[C@@H]7CO)O[C@@H]6CO)O[C@@H]5CO)O[C@@H]4CO)O[C@@H]3CO [α-cyclodextrin]
VAS Difficulty in breathing [1]: 17.727 ± 15.300 mm
VAS Fatigue feeling of the legs [1]: 38.002 ± 21.474 mm
VAS General lassitude [1]: 27.436 ± 16.724 * mm
VAS Tension of the legs [1]: 38.015 ± 21.098 mm
VAS Difficulty in breathing [2]: 16.498 ± 18.581 * mm
VAS Fatigue feeling of the legs [2]: 28.636 ± 21.115 ** mm
VAS General lassitude [2]: 24.728 ± 21.853 * mm
VAS Tension of the legs [2]: 26.662 ± 21.491 ** mm
VAS Difficulty in breathing [3]: 22.702 ± 23.028 mm
VAS Fatigue feeling of the legs [3]: 42.045 ± 25.730 mm
VAS General lassitude [3]: 39.689 ± 21.542 mm
VAS Tension of the legs [3]: 41.674 ± 26.128 mm
VAS Difficulty in breathing [4]: 16.907 ± 16.405 mm
VAS Fatigue feeling of the legs [4]: 31.167 ± 20.034 mm
VAS General lassitude [4]: 20.932 ± 16.099 mm
VAS Tension of the legs [4]: 29.904 ± 19.297 mm
VAS Difficulty in breathing [5]: 12.228 ± 15.335 mm
VAS Fatigue feeling of the legs [5]: 22.603 ± 21.310 * mm
VAS General lassitude [5]: 17.754 ± 19.279 * mm
VAS Tension of the legs [5]: 22.193 ± 22.240 mm
VAS Difficulty in breathing [6]: 16.882 ± 18.668 mm
VAS Fatigue feeling of the legs [6]: 34.945 ± 26.504 mm
VAS General lassitude [6]: 30.096 ± 20.702 mm
VAS Tension of the legs [6]: 33.394 ± 26.250 mm
general fatigue feeling after the exercise (VAS), change vs before intake, compared with placebo group (about 200 mg/day, after 4-week and 8-week intake, p<0.05): significantly decreased
VAS Difficulty in breathing [7]: 30.597 ± 21.390 * mm
VAS Fatigue feeling of the legs [7]: 60.911 ± 21.493 mm
VAS General lassitude [7]: 41.464 ± 17.587 mm
VAS Tension of the legs [7]: 58.542 ± 25.137 mm
VAS Difficulty in breathing [8]: 29.033 ± 20.173 ** mm
VAS Fatigue feeling of the legs [8]: 54.009 ± 23.092 mm
VAS General lassitude [8]: 39.053 ± 21.314 * mm
VAS Tension of the legs [8]: 55.137 ± 24.253 mm
VAS Difficulty in breathing [9]: 44.516 ± 19.027 mm
VAS Fatigue feeling of the legs [9]: 53.304 ± 25.421 mm
VAS General lassitude [9]: 51.306 ± 20.273 mm
VAS Tension of the legs [9]: 59.341 ± 24.644 mm
